Measured values taken from patent publication US20210230179A1, “THIENO[2,3-B]PYRIDINE DERIVATIVES AS EPAC INHIBITORS AND THEIR PHARMACEUTICAL USES” (INSTITUT NATIONAL DE LA SANTE ET DE LA RECHERCHE MEDICALE …, priority 2018, published 2021).
Substitutions are numbered along the chain they refer to.

Key:
Epac1 [1] = biological target: T1, Epac1 (Homo sapiens, UniProt O95398); test: Rap1-GTP in HEK293 cells transfected with Epac1; assay type: cell-based; parameters: expressed in transfected cells; host or cells: HEK293; conditions: 10 min; for inhibition of Epac1-induced Rap1 activation: 20 μM, 30 min preincubation, 8-CPT-AM 10 μM
T1 sequence (O95398 1-923): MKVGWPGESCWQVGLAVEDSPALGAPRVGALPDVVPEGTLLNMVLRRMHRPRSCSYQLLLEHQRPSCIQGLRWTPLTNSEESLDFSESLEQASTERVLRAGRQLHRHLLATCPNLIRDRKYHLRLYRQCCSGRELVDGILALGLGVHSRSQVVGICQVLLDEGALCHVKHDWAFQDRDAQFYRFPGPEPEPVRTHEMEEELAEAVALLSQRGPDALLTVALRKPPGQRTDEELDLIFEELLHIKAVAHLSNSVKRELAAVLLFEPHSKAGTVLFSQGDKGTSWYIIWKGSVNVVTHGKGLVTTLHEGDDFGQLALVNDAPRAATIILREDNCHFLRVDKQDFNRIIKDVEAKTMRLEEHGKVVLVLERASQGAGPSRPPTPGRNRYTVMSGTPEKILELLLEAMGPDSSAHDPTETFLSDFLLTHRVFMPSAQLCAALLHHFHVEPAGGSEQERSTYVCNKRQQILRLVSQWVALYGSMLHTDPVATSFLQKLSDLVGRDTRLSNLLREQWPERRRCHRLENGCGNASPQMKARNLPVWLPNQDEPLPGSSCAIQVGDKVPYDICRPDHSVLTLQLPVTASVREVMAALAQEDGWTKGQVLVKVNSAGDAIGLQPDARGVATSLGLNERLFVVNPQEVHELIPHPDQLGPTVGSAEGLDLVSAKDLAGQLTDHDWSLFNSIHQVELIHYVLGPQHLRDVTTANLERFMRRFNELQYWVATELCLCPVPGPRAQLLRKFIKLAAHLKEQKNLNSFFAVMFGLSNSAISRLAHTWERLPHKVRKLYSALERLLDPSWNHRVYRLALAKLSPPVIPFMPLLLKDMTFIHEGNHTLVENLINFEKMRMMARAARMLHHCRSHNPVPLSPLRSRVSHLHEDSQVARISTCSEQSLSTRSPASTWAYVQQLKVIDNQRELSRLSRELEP
Procedure: FIGS. 9-13. Amounts of Rap1-GTP (n=5 in each group, mean±S.E.M) were determined in HEK293 cells transfected with Epac1 (FIGS. 9-11), Epac2A (FIG. 12) or Epac2B (FIG. 13). Cells were preincubated or not with AM-001 (FIGS. 9, 12, and 13), AM-002 (FIG. 10) or AM-003 (FIG. 11) (20 μM, 30 min) and were then treated or not with 8-CPT-AM (10 μM for Epac1 activation and 20 μM for Epac2A activation) or S-220 (50 μM for Epac2B activation) for 10 min. ESI-05 was used as positive control of Epac2A inhibition. Representative immunoblots are shown. […], *[…], ***p<0.001, ****p<0.0001, versus indicated values, one way ANOVA, Bonferroni comparison test.
Human Embryonic Kidney cells line (HEK293): HEK293 cells were maintained is in minimal essential medium with FBS (10%) and penicillin-streptomycin (1%). All media, sera, and antibiotics used in cell culture were purchased from Invitrogen.
The human Epac1/Epac2 expression vector was a gift from Dr J. L. Bos. Cells were transfected using Lipofectamine 2000 (Invitrogen) according to the manufacturer's instructions. HEK293 cells were maintained in MEM with FBS (Foetal Bovine Serum; 10%) and penicillin-streptomycin (1%). All media, sera and antibiotics used in cell culture were purchased from Invitrogen (Cergy Pontoise, France). Transient transfection experiments were performed with Lipofectamine 2000 (Invitrogen Life Technologies) in the presence of various amounts of plasmid constructs according to the manufacturer's instructions.
This cell line is commonly used for the evaluation of Epac pharmacological modulators on the cellular signaling of ectopically expressed Epac1 and Epac2 isoforms. […] Next, the inventors investigated the effect of 8-CPT-AM on the two Epac2 splice variants, Epac2A and Epac2B (FIGS. 12-13).

Epac2 = biological target: T2, Epac2 (Homo sapiens, UniProt Q8WZA2); test: Epac GEF activity assay (b-GDP dissociation from recombinant Rap1), Epac2; assay type: biochemical
T2 sequence (Q8WZA2 1-867 isoform Q8WZA2-3): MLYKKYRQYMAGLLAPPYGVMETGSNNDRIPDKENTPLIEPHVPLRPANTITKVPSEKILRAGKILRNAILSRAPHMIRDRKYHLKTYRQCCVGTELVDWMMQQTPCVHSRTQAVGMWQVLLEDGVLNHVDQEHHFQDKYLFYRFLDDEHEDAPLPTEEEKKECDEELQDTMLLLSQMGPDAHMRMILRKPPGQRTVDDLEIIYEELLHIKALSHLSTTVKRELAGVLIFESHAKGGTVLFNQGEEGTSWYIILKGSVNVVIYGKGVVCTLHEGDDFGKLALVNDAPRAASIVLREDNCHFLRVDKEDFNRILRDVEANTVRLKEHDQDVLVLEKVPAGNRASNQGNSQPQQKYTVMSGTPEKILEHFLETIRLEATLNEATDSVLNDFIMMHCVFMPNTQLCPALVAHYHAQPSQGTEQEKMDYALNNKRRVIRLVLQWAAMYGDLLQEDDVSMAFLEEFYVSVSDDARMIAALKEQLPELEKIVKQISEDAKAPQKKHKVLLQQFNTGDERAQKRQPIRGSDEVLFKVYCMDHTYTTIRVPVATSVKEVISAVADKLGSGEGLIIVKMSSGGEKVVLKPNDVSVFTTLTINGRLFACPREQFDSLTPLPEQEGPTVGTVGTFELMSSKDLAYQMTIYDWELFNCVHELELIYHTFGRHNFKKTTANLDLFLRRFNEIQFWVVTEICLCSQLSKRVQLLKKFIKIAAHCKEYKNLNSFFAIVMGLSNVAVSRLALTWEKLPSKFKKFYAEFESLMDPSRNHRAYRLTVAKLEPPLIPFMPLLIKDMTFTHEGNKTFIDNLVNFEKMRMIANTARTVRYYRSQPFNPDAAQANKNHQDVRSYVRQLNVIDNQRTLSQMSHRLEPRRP
Text: (§1) FIGS. 4-8. […] Variations of relative fluorescence units (RFU) were studied as a function of time and fitted to single exponentials.

Epac1-BRET sensor CAMYEL = biological target: T3, Epac1-BRET sensor CAMYEL (Homo sapiens, UniProt O95398, F824A/T823A); test: CAMYEL Epac1-BRET sensor assay (cAMP-induced conformational change); assay type: biochemical; conditions: for inhibitory activity on Epac1 activation, structure-activity comments: CAMYEL assay, compared with AM-001; for remaining activity at 20 µM: read-out: BRET ratio variation (% of 100 μM cAMP alone)
T3 construct: made in house; host or cells: Prokaryotic expression vector pQE30-CAMYEL; used as cell extract
T3 sequence (O95398 191-923 T823A/F824A limits assumed): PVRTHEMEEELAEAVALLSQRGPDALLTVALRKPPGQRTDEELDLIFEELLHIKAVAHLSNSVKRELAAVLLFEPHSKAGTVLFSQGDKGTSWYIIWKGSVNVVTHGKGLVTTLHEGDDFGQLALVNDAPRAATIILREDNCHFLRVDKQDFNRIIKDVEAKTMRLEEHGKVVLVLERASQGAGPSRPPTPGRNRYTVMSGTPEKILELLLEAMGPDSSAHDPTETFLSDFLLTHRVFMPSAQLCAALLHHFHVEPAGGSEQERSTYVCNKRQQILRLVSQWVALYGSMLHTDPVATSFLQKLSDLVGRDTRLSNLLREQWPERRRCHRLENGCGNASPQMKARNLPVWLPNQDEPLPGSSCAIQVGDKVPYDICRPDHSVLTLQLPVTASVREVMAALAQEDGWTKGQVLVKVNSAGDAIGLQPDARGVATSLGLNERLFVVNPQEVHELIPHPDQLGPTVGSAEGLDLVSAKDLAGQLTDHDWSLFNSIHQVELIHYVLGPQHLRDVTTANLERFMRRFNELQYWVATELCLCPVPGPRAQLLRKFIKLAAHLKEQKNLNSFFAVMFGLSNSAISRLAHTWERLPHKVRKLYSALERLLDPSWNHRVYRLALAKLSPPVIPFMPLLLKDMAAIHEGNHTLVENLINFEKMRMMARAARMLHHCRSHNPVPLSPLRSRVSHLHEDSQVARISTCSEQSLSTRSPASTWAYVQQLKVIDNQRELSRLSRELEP

Epac1 [2] = biological target: T4, Epac1 (Homo sapiens, UniProt O95398); test: biochemical
T4 sequence (O95398 191-923 limits assumed): T3 sequence (O95398 191-923 T823A/F824A limits assumed) with A633T, A634F
Text: as §1

mice = conditions: single i.v. bolus 8 mg/kg 5 min before reperfusion; 45 min occlusion, 24 h reperfusion

Row | inhibitory activity on Epac1 activation, structure-activity comments (Epac1-BRET sensor CAMYEL) | remaining activity at 20 µM (Epac1-BRET sensor CAMYEL) [%] | Structure (SMILES) | further results
1 |  |  | CO[C@@H]1[C@@H]2OP(=O)(OCOC(C)=O)OC[C@H]2O[C@H]1n1c(Sc2ccc(Cl)cc2)nc2c(N)ncnc21 (stereo partly drawn) [8-CPT-AM, 8-(4-chlorophenylthio)-2′-O-methyladenosine-3′,5′-cyclic monophosphate, acetoxymethyl ester] | activation of Rap1 by agonist (Epac1 [1]; cells overexpressing Epac1, 10 μM): robust activation of Rap1
2 |  |  | Nc1ncnc2c1ncn2[C@@H]1O[C@@H]2COP(=O)(O)O[C@H]2[C@H]1O [cAMP, cyclic AMP, reference compound] | EC50 (Epac2): 2.8 ± 1.1 µM
3 | abolished the inhibitory effect | 100 | CC(C)NC(=O)c1sc2nc(-c3cccs3)cc(-c3ccc(F)cc3)c2c1N [AM-003, reference compound] | inhibition of Epac1-induced Rap1 activation (Epac1 [1]): inactive
4 | decreased but not abolished | 82.4 | Nc1c(C(=O)Nc2ccc(F)cc2)sc2nc(-c3cccs3)ccc12 [AM-009] | 
5 |  |  | C[C@@H]1CCc2c(cc(Br)c(F)c2Br)N1C=O [(R)-CE3F4, reference compound] | IC50 (half-maximal inhibitory concentration), BRET sensor (Epac1-BRET sensor CAMYEL; not modified by increasing concentrations of cAMP): lower IC50 than AM-001; effect on Epac1 GEF (exchange) activity (Epac1 [2]; 30 μM Sp-8-CPT, 20 μM inhibitor): reduced; ratio of infarct size to area-at-risk (mice): failed to reduce infarct size
6 | no significant inhibitory activity | 93.6 | O=c1c2sc3nc(-c4cccs4)cc(-c4ccccc4)c3c2ncn1-c1ccccc1 [AM-002, reference compound] | inhibition of Epac1-induced Rap1 activation (Epac1 [1]): inactive
7 |  | 80.5 | Nc1c(C(=O)Nc2ccc(F)cc2)sc2nc3c(c(-c4ccccc4)c12)CCCC3 [AM-007] | 
8 | low activity | 101 | Cc1cc(C)c2c(N)c(C(=O)Nc3ccc(F)cc3)sc2n1 [AM-010, reference compound] | 
9 | decreased but not abolished | 74 | NC(=O)c1sc2nc(-c3cccs3)cc(-c3ccc(F)cc3)c2c1N [AM-006] | 
10 |  |  | COC1C2OP(O)(=S)OCC2OC1n1c(Sc2ccc(Cl)cc2)nc2c(N)ncnc21 (stereo not drawn) [Sp-8-CPT, 8-(4-Chlorophenylthio)-2′-O-methyladenosine-3′,5′-cyclic monophosphorothioate, Sp-isomer] | EC50 (Epac1 [2]): 7.5 ± 1.1 µM; Vmax of Sp-8-CPT-activated Epac1 relative to cAMP-activated Epac1 (Epac1 [2]): 2.5 fold; apparent affinity of Epac1, Sp-8-CPT relative to cAMP (Epac1 [2]; higher for Sp-8-CPT than for cAMP): 1.7 times; EC50 (Epac2): 5.6 ± 1.1 µM
11 |  | 82.2 | Cc1cc(-c2ccccc2)c2c(N)c(C(=O)Nc3ccccc3)sc2n1 [AM-008] | 

Row | Structure (SMILES) | inhibitory activity on Epac1 activation, structure-activity comments (Epac1-BRET sensor CAMYEL) | remaining activity at 20 µM (Epac1-BRET sensor CAMYEL) [%] | further results
12 | Nc1c(C(=O)Nc2ccccc2)sc2nc(-c3cccs3)cc(-c3ccc(F)cc3)c12 [AM-005] | no significant effect on the inhibitory potency | 46.9 | 
13 | Nc1c(C(=O)Nc2ccccc2)sc2nc(-c3cccs3)cc(-c3ccccc3)c12 [AM-004] | no significant effect on the inhibitory potency | 47 | 
